Measurements as given in ChEMBL document CHEMBL4354783, “The calcium-dependent lipopeptide antibiotics: structure, mechanism, & medicinal chemistry” (2019).
Values after ≈ are worked out from the molar mass of the structure shown.

What was measured:
Staphylococcus aureus = experiment: Antibacterial activity against methicillin-resistant Staphylococcus aureus USA300 incubated for 18 hrs by two-fold serial dilutions method; format: functional; conditions: USA300, 18 h
Enterococcus faecium = experiment: Antibacterial activity against vancomycin-resistant Enterococcus faecium incubated for 18 hrs by two-fold serial dilutions method; format: functional

SMILES	MIC (Staphylococcus aureus) [µg/mL]	MIC (Enterococcus faecium) [µg/mL]
CCC(C)CC/C=C\C=C\C(=O)N[C@H](C(=O)N[C@@H]1C(=O)N[C@H](C(C)C)C(=O)N[C@@H](CCCCN)C(=O)N[C@@H](C(O)C(=O)O)C(=O)N[C@@H](CC(=O)O)C(=O)NCC(=O)N[C@H](C(C)C(=O)O)C(=O)N[C@@H](C(C)C)C(=O)N2C[C@H](C)C[C@H]2C(=O)NC1C)C(C)C(=O)O (some centres undefined)	0.2 to 0.8 (≈ 0.158 to 0.633 µM)	0.8 to 2 (≈ 0.633 to 1.58 µM)
CC(C)CC/C=C\C=C\C(=O)N[C@H](C(=O)N[C@@H]1C(=O)N[C@H](C(C)C)C(=O)N[C@@H](CCCCN)C(=O)N[C@@H](C(O)C(=O)O)C(=O)N[C@@H](CC(=O)O)C(=O)NCC(=O)N[C@H](C(C)C(=O)O)C(=O)N[C@@H](C(C)C)C(=O)N2C[C@H](C)C[C@H]2C(=O)NC1C)C(C)C(=O)O (some centres undefined)	0.2 to 0.8 (≈ 0.16 to 0.64 µM)	0.8 to 2 (≈ 0.64 to 1.6 µM)
